Experimental data reported in US20100120810A1, “COMPOUNDS AND METHODS FOR MODULATING RHO GTPASES” (priority 2007, published 2010).
“Also recorded” adds a separate entry of the source. Like-named read-outs stand apart in the source and are kept apart here.

Columns and labels:
[1] = target: T1, Rac1 activated by DH/PH domain of Guanine nucleotide Exchange Factor Tiam1 (Rac1/Tiam1) (Homo sapiens, UniProt P63000); assay: Nucleotide binding assay: BODIPY-GTP binding to Rac1 activated by Tiam1 DH/PH; type: biochemical; conditions: for inhibition at 50 µM: read-out: Rac1 % inhibition of BODIPY-GTP binding
T1 construct: made in house; host or cells: E. coli BL21 Codon+RIL
Method: (§1) Fluorescence of GTP analog BODIPY-GTP increases when it binds to small G proteins. This property was used to assess ability of compounds to inhibit nucleotide binding to Rac1, Rac1b and Cdc42. 2 μM GST-Rac1 and 6 μg His6-Tiam1-DH/PH were diluted in a buffer containing 20 mM Tris, 50 mM NaCl, and 1 mM MgCl2. This mixture was loaded in a 96-well plate. Fluorescence recording were started (λEx: 485 nm; λEm: 538 nm) using a spectrofluorimeter (Fluoroskan; Thermolab Systems). Assay was initiated by the addition of 2 μM BODIPY-GTP with or without various doses of test compound. Fluorescence values were recorded, and data were processed as follows: background fluorescence (unbound BODIPY-GTP) was retrieved from fluorescence values.
(§2) This assay allows determining whether compounds can inhibit the binding of a fluorescent nucleotide to recombinant small G proteins of interest. The effect of various alkaloid compounds on binding of BODIPY-GTP to Rac1 activated by DH/PH domain of Guanine nucleotide Exchange Factor Tiam1 (Rac1/Tiam1), Rac1b and Cdc42 is described below.

Rac1b = target: T2, Rac1b (Homo sapiens, UniProt P63000); assay: Nucleotide binding assay: BODIPY-GTP binding to Rac1b; type: biochemical; conditions: for IC50: dose-response study; for inhibition at 50 µM: read-out: Rac1b % inhibition of BODIPY-GTP binding; for selectivity for Rac1b: versus Rac1 or Cdc42
T2 construct: GST (N); made in house; host or cells: E. coli BL21 Codon+RIL
Method: as §1, §2

Cdc42 = target: T3, Cdc42 (Homo sapiens, UniProt P60953); assay: Nucleotide binding assay: BODIPY-GTP binding to Cdc42; type: biochemical; conditions: for inhibition at 50 µM: read-out: Cdc42 % inhibition of BODIPY-GTP binding
T3 construct: GST (N); made in house; host or cells: E. coli BL21 Codon+RIL
Method: as §1, §2

[2] = target: T4, HEK293 cells overexpressing human Rac1b (Homo sapiens, UniProt P63000); assay: Rac1b activation assay (G-LISA); type: cell-based
T4 construct: expressed in transfected cells; host or cells: HEK293
Method: Rac1b activation assay: HEK293 cells overexpressing human Rac1b were plated in 100 mm diameter dishes and grown for 5 days in MEM medium supplemented with 10% FBS, L-Glutamine and antibiotics. Cells were then treated with 50 μM of compounds or the solvent for 5 minutes, and the GTP loading of Rac1b was measured using a Rac Activation Assay Kit (Cytoskeleton) according to manufacturer's recommendations. Briefly, this assay uses a 96-well plate coated with RBD domain of Rho-family effector proteins. […] The signal is then developed with OPD reagent.

HCT116 cell line = assay: Soft agar assay (anchorage-independent colony formation); type: cell-based; conditions: HCT116, 7 days
Text: Colony formation in soft agar is the most widely used assay to evaluate anchorage-independent growth potential and represents one of the best in vitro assays that correlates strongly with in vivo tumorigenic cell growth potential. Normal cells require adherence and spreading onto a solid substratum in order to remain viable and proliferate. In contrast, cancer cell line HCT116 (ATCC clone number CCL-247) lost this requirement and therefore can form proliferating colonies of cells when suspended in a semisolid agar medium. The assay was performed in 24-well plates, using duplicates wells for each compound concentration. Briefly, a 0.5% Bacto™ Agar (BD Biosciences) bottom layer (prepared in HCT116 complete growth medium supplemented or not with the tested compound) was poured first and allowed to harden (0.3 ml per well). HCT116 were trypsinized to generate a uniform single cell suspension. Five×10^3 cells per well were resuspended in 0.3% agar supplemented with complete growth medium, with or without several compound concentrations to form the top layer (0.3 ml per well). HCT116 were allowed to grow for 7 days in these conditions and then analysed for colonies formation. Analysis was performed from pictures taken under a microscope that are representative from 2 different fields of the well. For each field, 2 different focal plans were taken and were merged using ImageJ software. The number of colonies were scored and colonies' size were measured. IC50 were determined for the number and size of colonies using GraphPad Prism (GraphPad) software. Data are mean values of 2 to 3 independent experiments.

protein kinase C (PKC) = conditions: cited from earlier work
NIH3T3 and PC-3 cells = conditions: cited from earlier work
RhoA = RhoA (Homo sapiens, UniProt P61586); conditions: cited from earlier work
[3] = Homo sapiens, HCT-116, 168 h, read-out: Soft agar assay IC50, Clone Number
[4] = Homo sapiens, HCT-116, 168 h, read-out: Soft agar assay IC50, Clone Size
[5] = final concentration of 50 μM, Rac1/Tiam1

T3 sequence (P60953 whole entry, species assumed): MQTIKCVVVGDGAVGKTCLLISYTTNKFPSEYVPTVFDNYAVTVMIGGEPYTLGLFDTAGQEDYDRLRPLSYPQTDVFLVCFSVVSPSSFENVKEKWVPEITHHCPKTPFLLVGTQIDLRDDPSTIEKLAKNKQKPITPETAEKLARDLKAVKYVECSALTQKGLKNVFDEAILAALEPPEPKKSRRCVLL
RhoA, sequence (P61586 whole entry, species assumed): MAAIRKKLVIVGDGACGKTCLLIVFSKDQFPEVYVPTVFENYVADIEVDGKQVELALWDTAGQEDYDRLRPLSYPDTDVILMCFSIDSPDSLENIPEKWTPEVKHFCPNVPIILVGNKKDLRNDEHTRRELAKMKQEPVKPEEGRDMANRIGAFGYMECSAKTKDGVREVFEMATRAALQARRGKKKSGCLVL

SMILES	IC50 (Rac1b)	selectivity for Rac1b (Rac1b)	IC50 (HCT116 cell line; [3])	IC50 (HCT116 cell line; [4])	activity against PKC (protein kinase C (PKC))	inhibition at 50 µM [1, 5]	inhibition at 50 µM (Rac1b; final concentration of 50 μM)	inhibition at 50 µM (Cdc42; final concentration of 50 μM)	other results
C[n+]1cc2c3c(ccc2c2ccc4cc5c(cc4c21)OCO5)OCO3.O.[Cl-] [Compound 13, 13-methyl-[1,3]benzodioxolo[5,6-c]-1,3-dioxolo[4,5-i]phenanthridinium chloride hydrate, reference compound]	4.6 ± 0.4 µM	some significant selectivity for Rac1b	1.9 ± 0.6 µM	1.5 ± 0.2 µM	217 μm				IC50 ([1]; dose-response study): 57.8 ± 4.3 µM; inhibition at 50 µM [1]: 45 ± 4%; fold more active on Rac1b than on Rac1/Tiam1 (Rac1b; from IC50s): 13 fold; times more active on Rac1b than on Cdc42 (Rac1b; from IC50s): 6 times; inhibition at 50 µM (Rac1b): 100%; IC50 (Cdc42; dose-response study): 32.1 ± 0.7 µM; inhibition at 50 µM (Cdc42): 63 ± 2%; inhibition at 50 µM ([2]; HEK293, read-out: G-LISA % inhibition @ 50 μM): 50 ± 3%
COc1ccc2c(c[n+](C)c3c4cc5c(cc4ccc23)OCO5)c1OC.[Cl-] [Compound 14, 1,2-dimethoxy-N-methyl[1,3]benzodioxolo[5,6-c]phenanthridinium chloride, reference compound]	6.7 ± 0.9 µM	highly selective for Rac1b; also recorded: some significant selectivity for Rac1b	2.4 ± 0.2 µM	2 ± 0.3 µM	1 μm	25 ± 6%	100%	35 ± 10%	maximum inhibition on Rac1/Tiam1 ([1]; dose-response study (1-2-5-10-25-50-75-100 μM)): around 25%; inhibition at 50 µM ([2]; HEK293, 50 μM, 5 minutes, GTP loading of Rac1b, read-out: G-LISA % inhibition @ 50 μM): 40 ± 10%
Cl.Oc1cc2c(cc1O)CN(Cc1cccc(O)c1O)CC2 [Compound 19, 2-(2,3-Dihydroxybenzyl)-6,7-dihydroxy-1,2,3,4-tetrahydroisoquinolinium chloride]						9 ± 2%	19 ± 3%	17 ± 3%	melting point: 178.8 °C
CCN(CC)CCCC(C)Nc1nc(C)cc(Nc2ccc3nc(C)cc(N)c3c2)n1 (stereo not shown) [NSC 23766, reference compound]									IC50 (HCT116 cell line; read-out: Soft agar assay IC50, Clone Number): 64.2 ± 4.8 µM; IC50 (HCT116 cell line; read-out: Soft agar assay IC50, Clone Size): 27.9 ± 5 µM; effective dose, Rac1-mediated cellular functions (NIH3T3 and PC-3 cells): 50 to 100 µM; effect on RhoA activation (RhoA): no effect
